Assay results published in the METLIN SMRT retention time set (Domingo-Almenara et al. 2019).

Test: gradient 5% acetonitrile 3 min, to 50% in 2 min, to 85% in 15 min, held 3 min, 100 µL/min
Settings: column: Zorbax Extend-C18 2.1 x 50 mm; eluents: water / acetonitrile, 0.1% formic acid
Outline: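 In both positive and negative ionization mode, a quadrupole time-of-flight mass spectrometer coupled to HPLC analyzed pure standards run in mixtures of ~100 molecules. The Zorbax Extend-C18 column (2.1 × 50 mm, 1.8 μm) was operated at 100 μL/min with water and acetonitrile, each containing 0.1% formic acid. The dead volume was 40 μL and the dwell volume 900 μL. Retention time came from adduct peaks that were computationally picked and individually inspected by hand.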

| SMILES | RP-LC retention time [s] |
| --- | --- |
| CCc1ccc(Nc2nc(C(=O)NCCN3CCCC3)nc3ccccc23)cc1 | 632 |
| Cc1ccc(Cn2nc3n(c2=O)CCCC3)cc1 | 702 |
| Cc1ccc(F)cc1NC(=O)CN1CCC(c2nc(-c3cccs3)no2)CC1 | 725 |
| COc1ccc(NC(=O)Cc2csc(NC(=O)c3ccc(=O)[nH]c3)n2)cc1Cl | 637 |
| CC(C)NC(=O)N1CCCC(c2cccc(C(=O)NCc3ccccc3Cl)c2)C1 (stereo unspecified) | 909 |
| Cc1ccc(CNC(=O)N2CCC3(C2)C(=O)N(C)c2ccccc23)cc1 (stereo unspecified) | 797 |
| O=C(CSc1nccc(N2CCCC2)n1)N1CCN(c2ccccc2F)CC1 | 677 |
| CC(=O)Nc1cccc(NC(=O)C2CC(=O)N(c3n[nH]c4cccc(F)c34)C2)c1 (stereo unspecified) | 644 |
| Cc1ccc(F)c(NC(=O)Cn2cc(-c3nnc(C)o3)ccc2=O)c1 | 805 |
| CCn1nnc2cc(-c3noc(-c4cc(OC)c(OC)c(OC)c4)n3)ccc21 | 993 |
| Cc1cc(OCC(=O)N(Cc2ccc(N(C)C)cc2)C2CCS(=O)(=O)C2)ccc1Cl (stereo unspecified) | 839 |
| O=C(CCC1CCN(c2cc(NC3CC3)ncn2)CC1)N1CCN(c2ncccn2)CC1 | 615 |
| O=C(NCC1CCOCC1)Nc1ccccc1 | 656 |
| O=C(Nc1ccccc1)N1CCC(CCOc2cccnc2)CC1 | 638 |
| COCC(=O)NCc1nnnn1C1CCCCC1 | 608 |
| COC(=O)c1ccc2c(=O)n(Cc3ccc(F)cc3)c(N3CCC(C(N)=O)CC3)nc2c1 | 777 |
| COc1cccc(N2CCN(C(=O)C3CC(=O)N(c4ccc5oc(C)nc5c4)C3)CC2)c1 (stereo unspecified) | 752 |
| CCn1c(=O)sc2cc(S(=O)(=O)N3CCC(C(=O)N4CCc5ccccc5C4)CC3)ccc21 | 944 |
| COc1ccc(C(=O)N2CC(n3cc(COCC4CC4)nn3)C2)c(OC)n1 | 718 |

| SMILES | RP-LC retention time [s] |
| --- | --- |
| CC(C)Cn1cc(CCNS(=O)(=O)c2ccccc2Cl)c2cccnc21 | 922 |
| CC(C)(C)CC(=O)NCCc1noc(C2CC2)n1 | 713 |
| CCC(=O)N1CCCC1c1nc2ccccc2n1CC(=O)OC (stereo unspecified) | 592 |
| O=C(NCc1csc(-c2ccccc2)n1)C1CCN(C(=O)c2ccc(F)c(F)c2)CC1 | 814 |
| Cc1csc(-c2cc(S(=O)(=O)NCCN3CCCC3)cn2CC(=O)N2CCCCC2)n1 | 649 |
| O=C(NCc1cccc(F)c1)C1CC(=O)N(c2n[nH]c3cccc(F)c23)C1 (stereo unspecified) | 705 |
| O=c1cc(-c2ccncc2)nc(N2CCCC2)n1Cc1ccccc1 | 1200 |
| COc1ccc(-c2coc3cc(OCC(=O)O)ccc3c2=O)cc1 | 765 |
| O=C(NC(c1ccccc1)c1nnc(N2CCCCC2)o1)C1CCCC1 (stereo unspecified) | 836 |
| CCc1noc([C@@H]2CC(F)(F)CN2C(=O)c2cnc[nH]2)n1 | 604 |
| Cc1[nH]cnc1CN1CCc2c(c3ccccc3n2C)C1=O | 652 |
| CCOC(=O)c1c(C)[nH]c(CCC(=O)NCCN2CCN(C)CC2)c1C | 579 |
| CCn1cc(-c2nc(C)c(C(=O)Nc3ccc(N4CCOCC4)cc3)s2)c2cccnc21 | 863 |
| Cc1c(Cl)cccc1NC(=O)NCC(c1cccnc1)c1c[nH]c2ccccc12 (stereo unspecified) | 706 |
| O=C(O)CN1C(=O)CN=C(c2ccccn2)c2cc(Cl)ccc21 | 696 |
| Cc1ccnc(Nc2nc(C)c(C(=O)N3CCC(C(N)=O)(N4CCCCC4)CC3)s2)c1 | 561 |
| COC(=O)/C(=C1/OC(=O)C(c2ccccc2)=C1O)c1ccccc1 | 1130 |
| COc1ccc(NC(=O)C2CC(=O)N(c3ccc4c(c3)CCN4C(C)=O)C2)cc1OC (stereo unspecified) | 642 |

Other lines, results leading:

| RP-LC retention time [s] | SMILES |
| --- | --- |
| 651 | CCCn1c(CCNC(=O)c2ccc(F)cc2)nc2cccnc21 |
| 751 | COc1ccc(C2Cn3cnc(C(=O)N4CCC(C(=O)Nc5cc(C)cc(C)c5)CC4)c3CO2)cc1 (stereo unspecified) |
| 1210 | Cc1nc2cc(-c3noc(-c4ccc(C)c(F)c4)n3)ccc2o1 |
| 982 | Cc1cc(-c2nnc(C3CCC3)o2)c(C)n1CC(=O)Nc1ccc(Br)cc1F |
| 546 | Cc1ccnc(NS(=O)(=O)c2ccc(NC(=O)CN3C(=O)CCC3=O)cc2)n1 |
| 943 | Cc1ccccc1-c1noc(Cn2ccn(Cc3ccc(Cl)cc3)c(=O)c2=O)n1 |
| 675 | O=C(COc1ccccc1F)NCCn1nc(-c2ccco2)ccc1=O |
| 658 | Clc1ccccc1-c1nnc(-c2ccc(-n3ccnc3)nc2)o1 |
| 563 | O=C(NCCN1CCOCC1)C1CCc2sc(C(=O)N3CCCCC3)cc2C1 (stereo unspecified) |
| 738 | CS(=O)(=O)Nc1ccc2c(c1)C(=O)Nc1cc(Cl)ccc1O2 |
| 862 | N#Cc1ccc(C(=O)Nc2cnc(N3CCCCC3)nc2)cc1 |
| 998 | CCc1nc2ccccc2c(=O)n1Cc1noc(-c2cccc(N(C)C)c2)n1 |
| 732 | Cc1ccccc1NC(=O)N1CCC(c2nc(C(=O)N3CCCC3)c(C)o2)CC1 |
| 730 | CN1C(=O)c2cccn2CC1C(=O)Nc1cccc(Cl)c1 (stereo unspecified) |
| 854 | CN1C(=O)Cc2ccccc2C1C(=O)N1CCN(c2ccc(Cl)cc2)CC1 (stereo unspecified) |
| 1150 | Cc1nc2cc(-c3noc(-c4cc(F)ccc4Cl)n3)ccc2o1 |
| 610 | Cn1nc2n(c1=O)CCN(C(=O)c1ccc3c(c1)OCO3)CC2 |
| 779 | COc1ccc(-c2c(C)noc2NC(C)=O)cc1S(=O)(=O)Nc1cccc(SC)c1 |
| 614 | O=C(Cc1ccccc1)N1CCN(c2nc(CN3CCOCC3)cs2)CC1 |
| 582 | CN(C)c1ccc(C(CNC(=O)c2ccco2)N2CCc3ccccc3C2)cc1 (stereo unspecified) |
| 704 | COc1ccc(OC)c(CNC(=O)C2CCCN(c3ccc(-c4ccccc4)nn3)C2)c1 (stereo unspecified) |
| 1250 | CCCN1C(=O)COc2ccc(-c3noc(/C=C/c4ccccc4)n3)cc21 |
| 712 | COc1ccc2[nH]c(=O)c(CCC(=O)O)cc2c1 |
| 1080 | CCn1cc(-c2nc(C(=O)N3CCc4ccccc43)cs2)c2cccnc21 |
| 654 | Cc1noc(C2CN(C(=O)Nc3c(F)cccc3F)CC23CCOCC3)n1 (stereo unspecified) |
| 744 | CCN1C(=O)Cc2ccccc2C1C(=O)NCc1cccc(F)c1 (stereo unspecified) |
| 1030 | Cc1nn(-c2nc3ccccc3[nH]2)c2c1C(=O)CC(/C=C/c1ccccc1)C2 (stereo unspecified) |

| RP-LC retention time [s] | SMILES |
| --- | --- |
| 715 | CNC(=O)C1CN(C(=O)Nc2cc(C)ccc2C)CC12CCCC2 (stereo unspecified) |
| 549 | Cn1nc(N2CCC(NC(=O)Cc3ccncc3)C2)ccc1=O (stereo unspecified) |
| 854 | CCc1ccccc1NC(=O)Cn1nc2cc(C)nc(-c3ccccc3)n2c1=O |
| 860 | COc1cccc(CNC(=O)N2CCCC(C)(C(=O)NCc3ccccc3C)C2)c1 (stereo unspecified) |
| 634 | Cc1cnc(C)n1C1CCN(S(=O)(=O)c2ccccc2)CC1 |
| 747 | Cc1cc2nc(C(=O)NC(C)C)c(=O)n(C)c2cc1C |
| 731 | COc1ccccc1CCNC(=O)C1CN(C(=O)c2ccc(F)c(F)c2)C1 |
| 1200 | CCc1nc(-c2cccc(C)c2)c(-c2ccnc(NC(=O)c3ccccc3)c2)s1 |
| 548 | O=C(Nc1ccccc1)N1CC(c2nc3ccccc3[nH]2)C1 |
| 1170 | CCn1c(=O)c(C)nc2cc(-c3noc(/C=C/c4ccc(C)cc4)n3)ccc21 |
| 652 | CCCn1cnc2ccc(-c3noc(CNC(=O)c4cccs4)n3)cc21 |
| 723 | CCn1ccc2sc(C)c(C(=O)NCc3ccco3)c2c1=O |
| 700 | CCOc1ccn(-c2ccc(F)cc2)c(=O)c1C(=O)Nc1ccc(Oc2ccnc(N)c2Cl)c(F)c1 |
| 1220 | CCOc1ccccc1NC(=O)N1c2ccccc2CC1c1nc(C(C)C)no1 (stereo unspecified) |
| 803 | Cc1ccn2cc(-c3ccc(NC(=O)c4ccc(C(C)(C)C)cc4)cc3)nc2n1 |
| 680 | COc1ccc(NC(=O)Cn2c(N3CCCCC3)nc(C)cc2=O)c(OC)c1 |
| 642 | CCNC(=O)C1CCCN(c2nc3ncn(CC(=O)NCc4ccc(OC)cc4)c(=O)c3s2)C1 (stereo unspecified) |
| 797 | Cc1ccc(CNC(=O)CC2CCN(C(=O)c3[nH]c(C)cc3C)CC2)cc1 |
| 553 | COc1ccc(CCN2CC(C(=O)N3CCN(C(C)C)CC3)CC2=O)cc1OC (stereo unspecified) |
| 944 | O=C(Nc1ccccc1)N1CC(c2nc(CCOCC3CCCC3)no2)C1 |
| 823 | CC(C)CC(C(=O)Nc1cccc(O)c1)N1C(=O)c2ccccc2C1=O (stereo unspecified) |
| 586 | Cc1cccc(NC(=O)N2CCC(CCN)CC2)c1 |
| 873 | CCCc1cc(C2CCCN2C(=O)NCc2ccc(F)cc2)no1 (stereo unspecified) |
| 719 | O=c1c2cc(-c3ccc(F)cc3)nn2ccn1Cc1noc(CN2CCCCCCC2)n1 |
| 741 | CC1=C(c2ccc(F)cc2)S(=O)(=O)N=C1N1CCC(C(=O)NC(C)C)CC1 |
| 788 | CCS(=O)(=O)NCc1cccnc1Oc1ccccc1 |
| 890 | O=C(Nc1ccc2c(c1)OCO2)C(=O)c1c[nH]c2ccccc12 |
